System: AGS cells (gastric adenocarcinoma)
Test: MTT cell viability assay on AGS cells
Type: cell-based
Details: AscH− 100 µM alone (negative control), 48 h
Experimental: The complexes 1–3, Cu-GGH, CuCl2 and the peptides a-c, GGH alone were tested on three different cancer cell lines towards their cytotoxic activity: HeLa cells (cervical adenocarcinoma), AGS and NCI-N87 cells (both gastric adenocarcinoma). The cells were grown and treated with compounds in RPMI Medium 1640 (1×) supplemented with 10% fetal calf serum in a humidified incubator with 5% CO2 at 37 °C. MTT cell viability assays were carried out at two concentrations (100 and 250 µM) at least in duplicate (in AGS cells additionally in two independent experiments). The Annexin V-FITC apoptosis assay was carried out at a compound concentration of 500 µM in duplicate in two independent experiments.
For the MTT cell viability assay (Sigma Aldrich), cells were seeded at 10 000 (HeLa and AGS) and 20 000 (NCI-N87) cells/well in 96-well plates and left to settle for 24 h. […] Quantification of the formazan was ensured by a Spectramax M5 (Molecular Devices) microplate reader at an absorbance of 470 nm to determine the percentage of cell-growth inhibition of each sample (with compound) relative to a negative control (no compound). […]

O=C1O[C@H]([C@@H](O)CO)C(O)=C1O [AscH^−, sodium ascorbate]
cytotoxicity of the additive alone: does not show significant cytotoxicity

From PMC11638278, “Ascorbate: a forgotten component in the cytotoxicity of Cu(II) ATCUN peptide complexes” (Journal of Biological Inorganic Chemistry, 2024)
